Measured values from ChEMBL document CHEMBL1130061, “Discovery and biological activity of orally active peptidyl trifluoromethyl ketone inhibitors of human neutrophil elastase” (J Med Chem, 1997).
Numbered stars: 1 amine (or outer) side, 2 acyl side, 3 side chain; on linkers, the order of the positions; unused ones are H or OH. Square brackets hold non-standard residues; d marks the D form. Peptide text beside a SMILES is read from it. * marks the point of attachment. ξ: configuration not given here. 4Abz = Nc1ccc(C(=O)O)cc1; CO = O=C([*:1])[*:2]; ξV = CC(C)C(N)C(=O)O; NHPh = c1ccc(N*)cc1; ξP = O=C(O)C1CCCN1; CF3 = FC(F)(F)*

How the values were obtained:
[1] = organism: Mesocricetus auratus; assay: Reduction in wet lung weight relative to the body weight in hamsters
[2] = target: T1, Neutrophil elastase (Homo sapiens, UniProt P08246); assay: Inhibitory activity against Human Neutrophil Elastase by HNE-catalyzed hydrolysis of MeO-Suc-Ala-Ala-Pro-Val-pNa
T1 sequence (P08246 whole entry): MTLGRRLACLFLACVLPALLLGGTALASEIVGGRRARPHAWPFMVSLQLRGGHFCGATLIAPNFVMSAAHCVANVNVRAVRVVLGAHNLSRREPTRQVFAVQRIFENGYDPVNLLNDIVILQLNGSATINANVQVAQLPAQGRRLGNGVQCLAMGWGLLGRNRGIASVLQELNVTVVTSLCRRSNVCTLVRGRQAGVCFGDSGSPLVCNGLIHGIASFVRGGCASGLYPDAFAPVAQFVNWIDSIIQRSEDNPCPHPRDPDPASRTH

[3] = test system: Mesocricetus auratus; assay: Oral administration at a dose of 37.5 mg/kg 30 min prior to HNE (100 mg/hamster) and reduction in the number of white blood cells was reported
[4] = test system: Mesocricetus auratus; assay: Oral administration at a dose of 37.5 mg/kg 30 min prior to HNE and reduction in the number of white blood cells was reported

Row | Ki [2] | SMILES | Lw/Bw [1] | Reduction [3] | Reduction [4]
1 | 1.7 nM | CC(C)C(NC(=O)C1CCCN1C(=O)[C@H](C(C)C)N(CCCc1ccccc1)CCCc1ccccc1)C(=O)C(F)(F)F.Cl (stereo partly specified) | -23 | -39% | –
2 | 5.2 nM | CC(C)C(NC(=O)C1CCCN1C(=O)[C@@H](NS(=O)(=O)c1ccc([N+](=O)[O-])cc1)C(C)C)C(=O)C(F)(F)F (stereo partly specified) | -36 | -118% | –
3 | 2.5 nM | CC(C)C(NC(=O)C1CCCN1C(=O)[C@@H](NC(=O)c1ccc(N(C)C)cc1)C(C)C)C(=O)C(F)(F)F (stereo partly specified) | 36 | – | 0%
4 | 2.6 nM | CC(C)[C@H](NC(=O)Nc1ccccc1)C(=O)N1CCC[C@H]1C(=O)N[C@H](C(=O)C(F)(F)F)C(C)C ({NHPh-CO}-Val-Pro-Val-CF3) | -2 | -184% | –
5 | 45 nM | CC(=O)N[C@H](C(=O)N1CCC[C@H]1C(=O)N[C@H](C(=O)C(F)(F)F)C(C)C)C(C)C (HELM PEPTIDE1{[ac].V.P.V.[FC(F)(F)[*:1]]}$$$$V2.0) | 8 | -120% | –
6 | 0.41 nM | CC(C)C(NC(=O)C1CCCN1C(=O)[C@@H](NC(=O)c1ccc(Oc2ccccc2)cc1)C(C)C)C(=O)C(F)(F)F (stereo partly specified) | 31 | – | 78%
7 | 1 nM | Cc1ccc(C(=O)N[C@H](C(=O)N2CCC[C@H]2C(=O)N[C@H](C(=O)C(F)(F)F)C(C)C)C(C)C)cc1C | 75 | – | 55%
8 | 3.3 nM | CC(C)C(NC(=O)C1CCCN1C(=O)[C@@H](NS(=O)(=O)c1ccc(Cl)cc1)C(C)C)C(=O)C(F)(F)F (stereo partly specified) | -41 | – | 7%
9 | 6.1 nM | CC(C)C(NC(=O)C1CCCN1C(=O)[C@@H](NC(=O)CCC(=O)NS(=O)(=O)c1cccc2ccccc12)C(C)C)C(=O)C(F)(F)F (stereo partly specified) | -80 | -212% | –
10 | 5.4 nM | CC(C)C(NC(=O)C1CCCN1C(=O)[C@@H](NC(=O)c1ccc(C(=O)NCCN(C)C)cc1)C(C)C)C(=O)C(F)(F)F (stereo partly specified) | 20 | – | 71%
11 | 0.43 nM | CCOC(=O)c1ccc(/C=C/C(=O)N[C@H](C(=O)N2CCCC2C(=O)NC(C(=O)C(F)(F)F)C(C)C)C(C)C)cc1 (stereo partly specified) | -122 | -48% | –
12 | 4.2 nM | CC(C)C(NC(=O)C1CCCN1C(=O)[C@@H](NC(=O)c1ccc(C(=O)NS(C)(=O)=O)cc1)C(C)C)C(=O)C(F)(F)F (stereo partly specified) | -9 | – | 43%
13 | 20 nM | CC(C)[C@H](NC(=O)c1ccccn1)C(=O)N1CCC[C@H]1C(=O)N[C@H](C(=O)C(F)(F)F)C(C)C | 8 | – | 44%
14 | 55 nM | CC(=O)Nc1ccc(S(=O)(=O)N[C@H](C(=O)N2CCCC2C(=O)NC(C(=O)C(F)(F)F)C(C)C)C(C)C)cc1 (stereo partly specified) | 2 | – | 32%
15 | 0.96 nM | CC(=O)N(CC(=O)N[C@H](C(=O)N1CCC[C@H]1C(=O)N[C@H](C(=O)C(F)(F)F)C(C)C)C(C)C)Cc1ccccc1 (HELM PEPTIDE1{[ac].[O=C(CN(Cc1ccccc1)[*:1])[*:2]].V.P.V.[FC(F)(F)[*:1]]}$$$$V2.0) | 20 | – | 36%
16 | 63 nM | CC(C)[C@H](NC(=O)c1c[nH]cn1)C(=O)N1CCC[C@H]1C(=O)N[C@H](C(=O)C(F)(F)F)C(C)C | -42 | -267% | –
17 | 14 nM | CC(C)[C@H](NS(=O)(=O)c1ccccc1)C(=O)N1CCC[C@H]1C(=O)N[C@H](C(=O)C(F)(F)F)C(C)C | 29 | -48% | –
18 | 7.8 nM | CC(C)[C@H](NC(=O)c1cccnc1)C(=O)N1CCC[C@H]1C(=O)N[C@H](C(=O)C(F)(F)F)C(C)C (HELM PEPTIDE1{[O=C(c1cccnc1)[*:2]].V.P.V.[FC(F)(F)[*:1]]}$$$$V2.0) | -6 | – | 23%
19 | 3.2 nM | CC(C)c1cc(C(C)C)c(S(=O)(=O)N[C@H](C(=O)N2CCCC2C(=O)NC(C(=O)C(F)(F)F)C(C)C)C(C)C)c(C(C)C)c1 (stereo partly specified) | -17 | -186% | –
20 | 43 nM | CC(C)C(NC(=O)C1CCCN1C(=O)[C@@H](NC(=O)c1cc(C(=O)O)cc(C(=O)O)c1)C(C)C)C(=O)C(F)(F)F (stereo partly specified) | -45 | -105% | –
21 | 150 nM | CC(C)[C@H](NS(=O)(=O)C(F)(F)F)C(=O)N1CCC[C@H]1C(=O)N[C@H](C(=O)C(F)(F)F)C(C)C | 20 | – | 17%
22 | 2.7 nM | CC(C)C(NC(=O)C1CCCN1C(=O)[C@@H](NS(=O)(=O)c1ccc2ccccc2c1)C(C)C)C(=O)C(F)(F)F (stereo partly specified) | – | – | 20%
23 | 11 nM | CC(C)[C@H](NC(=O)Nc1ccc(F)cc1)C(=O)N1CCC[C@H]1C(=O)N[C@H](C(=O)C(F)(F)F)C(C)C | -3 | – | 8%

Row | Ki [2] | SMILES | Lw/Bw [1] | Reduction [3] | Reduction [4]
24 | 1.8 nM | COC(=O)c1ccc(C(=O)N[C@H](C(=O)N2CCCC2C(=O)NC(C(=O)C(F)(F)F)C(C)C)C(C)C)cc1 (stereo partly specified) | 49 | – | 56%
25 | 16 nM | CC(C)[C@H](NC(=O)c1ccc(O)c(O)c1)C(=O)N1CCC[C@H]1C(=O)N[C@H](C(=O)C(F)(F)F)C(C)C | -73 | -41% | –
26 | 1.2 nM | CC(C)C(NC(=O)C1CCCN1C(=O)[C@@H](NS(=O)(=O)C12CC3CC(CC(C3)C1)C2)C(C)C)C(=O)C(F)(F)F (stereo partly specified) | -36 | – | 61%
27 | 2.3 nM | CSc1ccc(C(=O)N[C@H](C(=O)N2CCCC2C(=O)NC(C(=O)C(F)(F)F)C(C)C)C(C)C)cc1 (stereo partly specified) | 20 | – | 36%
28 | 1.6 nM | CC(C)C(NC(=O)C1CCCN1C(=O)[C@@H](NS(=O)(=O)c1c(F)c(F)c(F)c(F)c1F)C(C)C)C(=O)C(F)(F)F (stereo partly specified) | -24 | – | 27%
29 | 60 nM | CC(=O)Oc1cc(OC(C)=O)cc(C(=O)N[C@H](C(=O)N2CCCC2C(=O)NC(C(=O)C(F)(F)F)C(C)C)C(C)C)c1 (stereo partly specified) | – | -12% | –
30 | 2 nM | CC(C)C(NC(=O)C1CCCN1C(=O)[C@@H](NC(=O)c1ccc(S(C)(=O)=O)cc1)C(C)C)C(=O)C(F)(F)F (stereo partly specified) | -16 | – | 58%
31 | – | CC(C)[C@H](NC(=O)OCc1ccccc1)C(=O)N1CCC[C@H]1C(=O)N[C@H](C(=O)C(F)(F)F)C(C)C (HELM PEPTIDE1{[O=C(OCc1ccccc1)[*:2]].V.P.V.[FC(F)(F)[*:1]]}$$$$V2.0) | 53 | – | 38%
32 | 15 nM | CC(C)[C@H](NC(=O)C(F)(F)F)C(=O)N1CCC[C@H]1C(=O)N[C@H](C(=O)C(F)(F)F)C(C)C (HELM PEPTIDE1{[O=C(C(F)(F)F)[*:2]].V.P.V.[FC(F)(F)[*:1]]}$$$$V2.0) | 67 | – | 91%
33 | 2 nM | CCCN(CC(=O)N[C@H](C(=O)N1CCC[C@H]1C(=O)N[C@H](C(=O)C(F)(F)F)C(C)C)C(C)C)C(C)=O (HELM PEPTIDE1{[ac].[CCCN(CC(=O)[*:2])[*:1]].V.P.V.[FC(F)(F)[*:1]]}$$$$V2.0) | 24 | – | 78%
34 | 1.8 nM | CC(C)C(NC(=O)C1CCCN1C(=O)[C@@H](NC(=O)/C=C/c1ccc(C(=O)O)cc1)C(C)C)C(=O)C(F)(F)F (stereo partly specified) | 13 | – | 68%
35 | 10 nM | CC(C)C(NC(=O)C1CCCN1C(=O)[C@@H](NC(=O)Nc1ccc(C(=O)O)cc1)C(C)C)C(=O)C(F)(F)F (stereo partly specified) ({4Abz-CO}-Val-[ξP]-[ξV]-CF3) | -1 | – | 48%
36 | – | CC(C)C(NC(=O)c1ccc(C(=O)NS(=O)(=O)c2ccc(Br)cc2)cc1)C(=O)N1CCC[C@H]1C(=O)N[C@H](C(=O)C(F)(F)F)C(C)C (stereo partly specified) | -0.5 | – | 30%
37 | 0.87 nM | CC(C)C(NC(=O)C1CCCN1C(=O)[C@@H](NC(=O)c1ccc2ccccc2c1)C(C)C)C(=O)C(F)(F)F (stereo partly specified) | 43 | – | 73%
38 | 1.7 nM | CC(C)C(NC(=O)C1CCCN1C(=O)[C@@H](NC(=O)c1cc2ccccc2cc1C(=O)O)C(C)C)C(=O)C(F)(F)F (stereo partly specified) | 23 | – | 53%
39 | 2.9 nM | CC(C)[C@H](NC(=O)c1ccc(F)cc1)C(=O)N1CCC[C@H]1C(=O)N[C@H](C(=O)C(F)(F)F)C(C)C | 44 | – | 22%
40 | 3.9 nM | CC(C)[C@H](NC(=O)c1ccc(O)cc1)C(=O)N1CCC[C@H]1C(=O)N[C@H](C(=O)C(F)(F)F)C(C)C | 35 | – | 28%
41 | 11 nM | COC(=O)c1cc(C(=O)N[C@H](C(=O)N2CCCC2C(=O)NC(C(=O)C(F)(F)F)C(C)C)C(C)C)cc(C(=O)OC)c1 (stereo partly specified) | 6 | – | 6%
42 | 1.2 nM | CC(C)C(NC(=O)C1CCCN1C(=O)[C@@H](NC(=O)c1ccc([N+](=O)[O-])cc1)C(C)C)C(=O)C(F)(F)F (stereo partly specified) | 54 | – | 4%
43 | 810 nM | CC(C)[C@H](NC(=O)C(=O)O)C(=O)N1CCC[C@H]1C(=O)N[C@H](C(=O)C(F)(F)F)C(C)C | 2 | – | 38%
44 | 15 nM | COc1cccc(OC)c1C(=O)N[C@H](C(=O)N1CCCC1C(=O)NC(C(=O)C(F)(F)F)C(C)C)C(C)C (stereo partly specified) | 20 | – | 177%
45 | 1.1 nM | COc1ccc(C(=O)N[C@H](C(=O)N2CCCC2C(=O)NC(C(=O)C(F)(F)F)C(C)C)C(C)C)cc1OC (stereo partly specified) | 66 | – | 46%
